Reference: ChEMBL document CHEMBL1201862, “PubChem BioAssay data set” (2004)
Where “and” joins values, the source holds several entries; their conditions need not be identical. Equal entries are not always repeated.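 A five-concentration, 48-hour dose response in 96-well plates underlies each endpoint, interpolated linearly between surrounding concentrations. Abbreviation: GI50, concentration required for 50% inhibition of growth.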 Calls of active or inactive are those of the source. Cut-off read from the data, not from the text of the source: active = GI50 up to about 1.1 µM and inactive = higher.

What was measured:
Test in all cases: NCI anticancer screen, dose series, 48 h
[1] = tested on: 786-0
[2] = tested on: A498
[3] = tested on: A549
[4] = tested on: ACHN
[5] = tested on: BT-549
[6] = tested on: CAKI-1
[7] = tested on: CCRF-CEM
[8] = tested on: COLO 205
[9] = tested on: EKVX
[10] = tested on: HCC 2998
[11] = tested on: HCT-116
[12] = tested on: HCT-15
[13] = tested on: HOP-62
[14] = tested on: KM12
[15] = tested on: LOX IMVI
[16] = tested on: M14
[17] = tested on: MCF7
[18] = tested on: MDA-MB-231
[19] = tested on: MDA-MB-435
[20] = tested on: MDA-N
[21] = tested on: Malme-3M
[22] = tested on: NCI-H226
[23] = tested on: NCI-H23
[24] = tested on: NCI-H460
[25] = tested on: NCI-H522
[26] = tested on: NCI/ADR-RES
[27] = tested on: OVCAR-3
[28] = tested on: OVCAR-4
[29] = tested on: OVCAR-5
[30] = tested on: OVCAR-8
[31] = tested on: PC-3
[32] = tested on: RPMI-8226
[33] = tested on: RXF 393
[34] = tested on: SF-268
[35] = tested on: SF-295
[36] = tested on: SF-539
[37] = tested on: SK-MEL-28
[38] = tested on: SK-MEL-2
[39] = tested on: SK-MEL-5
[40] = tested on: SK-OV-3
[41] = tested on: SN12C
[42] = tested on: SNB-19
[43] = tested on: SNB-75
[44] = tested on: SW-620
[45] = tested on: T47D
[46] = tested on: TK-10
[47] = tested on: U-251
[48] = tested on: UACC-257
[49] = tested on: UO-31
[50] = tested on: DU-145
[51] = tested on: HL-60
[52] = tested on: HOP-92
[53] = tested on: HT-29
[54] = tested on: IGROV-1
[55] = tested on: K562
[56] = tested on: MOLT-4
[57] = tested on: SR
[58] = tested on: UACC-62
[59] = tested on: Hs-578T

Measured: GI50

Cc1cc2[nH]c3c(C#N)c(-c4ccccc4)c(/C=N/c4ccc(Cl)cc4)c(=O)n3c2cc1C
inactive: [1] > 100 µM | [2] > 100 µM | [3] > 100 µM | [4] > 100 µM | [5] > 100 µM | [6] > 100 µM | [7] > 100 µM | [8] > 100 µM | [9] > 100 µM | [10] > 100 µM | [11] > 100 µM | [13] > 100 µM | [14] > 100 µM | [15] > 100 µM | [16] > 100 µM | [17] > 100 µM | [18] > 100 µM | [19] > 100 µM | [20] > 100 µM | [21] > 100 µM | [22] > 100 µM | [23] > 100 µM | [24] > 100 µM | [25] > 100 µM | [26] > 100 µM | [27] > 100 µM | [28] > 100 µM | [29] > 100 µM | [30] > 100 µM | [31] > 100 µM | [32] > 100 µM | [33] > 100 µM | [34] > 100 µM | [35] > 100 µM | [36] > 100 µM | [37] > 100 µM | [38] > 100 µM | [39] > 100 µM | [40] > 100 µM | [41] > 100 µM | [42] > 100 µM | [43] > 100 µM | [44] > 100 µM | [45] > 100 µM | [46] > 100 µM | [47] > 100 µM | [48] > 100 µM | [49] > 100 µM
> 100 µM: [12]

CC1(C)CCC(C)(C)c2cc(C(=O)Nc3ccc(C(=O)O)cc3)ccc21
inactive: [1] 28.9 µM | [2] 31.7 µM | [3] 20 µM | [4] 21.5 µM | [5] 25.5 µM | [6] 18.4 µM | [7] 18.2 µM | [8] 18 µM | [50] 28.4 µM | [9] 19.5 µM | [10] 19.2 µM | [11] 19.3 µM | [51] 3.52 µM | [13] 18.7 µM | [52] 27.1 µM | [53] 20.7 µM | [54] 22.7 µM | [55] 22.8 µM | [14] 26.5 µM | [15] 24.4 µM | [16] 19.6 µM | [17] 33.1 µM | [18] 22.4 µM | [19] 16.4 µM | [20] 22 µM | [56] 24.9 µM | [21] 18.7 µM | [22] > 44.8 µM | [23] 17.9 µM | [24] 19.9 µM | [25] 26.9 µM | [26] 19.9 µM | [27] 17.9 µM | [28] 20.9 µM | [29] 32.3 µM | [30] 30.5 µM | [31] 19.9 µM | [32] 14.5 µM | [33] 7.62 µM | [34] 27.3 µM | [35] 22 µM | [36] 13.4 µM | [37] 40.3 µM | [38] 22.1 µM | [39] 23.6 µM | [40] 19.8 µM | [41] 31.8 µM | [42] 26.1 µM | [43] 26.4 µM | [57] 15 µM | [44] 36.7 µM | [45] 15.5 µM | [46] 26.1 µM | [47] 27 µM | [48] 28.2 µM | [58] 17.3 µM | [49] 14.9 µM
22.7 µM: [12]

O=S(=O)(O)c1cc(S(=O)(=O)O)c2cc(/N=N/c3c(O)ccc4ccccc34)ccc2c1
inactive: [1] > 100 µM | [3] > 100 µM | [4] > 100 µM | [5] > 100 µM | [6] > 100 µM | [7] > 100 µM | [8] > 100 µM | [50] > 100 µM | [9] > 100 µM | [11] > 100 µM | [51] > 100 µM | [13] > 100 µM | [52] > 100 µM | [53] > 100 µM | [59] > 100 µM | [54] > 100 µM | [55] > 100 µM | [14] > 100 µM | [15] > 100 µM | [16] > 100 µM | [18] > 100 µM | [19] > 100 µM | [20] > 100 µM | [56] > 100 µM | [21] 50.7 µM | [22] > 100 µM | [23] > 100 µM | [25] > 100 µM | [26] > 100 µM | [27] > 100 µM | [28] > 100 µM | [29] > 100 µM | [30] > 100 µM | [31] > 100 µM | [32] > 100 µM | [33] > 100 µM | [34] > 100 µM | [35] > 100 µM | [37] > 100 µM | [38] > 100 µM | [39] > 100 µM | [40] > 100 µM | [41] > 100 µM | [42] > 100 µM | [43] > 100 µM | [44] > 100 µM | [45] > 100 µM | [46] > 100 µM | [47] > 100 µM | [48] > 100 µM | [58] > 100 µM | [49] > 100 µM
> 100 µM: [12]

COc1ccc(-c2c(C#N)c(N)n(C3OCC(OC(C)=O)C(OC(C)=O)C3OC(C)=O)c(=S)c2C#N)cc1 (stereo unspecified)
inactive: [1] 42.4 µM and 36.8 µM | [2] 32.7 µM and 28.2 µM | [3] 99.5 µM and 65.3 µM | [4] 48.9 µM and 40.6 µM | [5] 20.7 µM and 16.4 µM | [6] 38.5 µM and 23.1 µM | [7] 16.4 µM and 31 µM | [8] 36.1 µM and 50.1 µM | [50] 64.4 µM and 60.1 µM | [9] 34.7 µM and 22.6 µM | [10] 37.8 µM and 26.6 µM | [11] 41.1 µM and 52.2 µM | [51] 17.4 µM and 15.2 µM | [13] 40.9 µM and 23.6 µM | [52] 16.4 µM and 11.8 µM | [53] 41.2 µM and 44.5 µM | [54] 77.1 µM and 63.4 µM | [14] 53.7 µM and 50.1 µM | [15] 30 µM and 34 µM | [16] 53 µM and 49.3 µM | [17] 27.5 µM and 49.3 µM | [18] 41.7 µM and 33 µM | [19] 25.3 µM and 35.7 µM | [20] 43 µM and 51.2 µM | [56] 17.6 µM and 14.3 µM | [21] 44.9 µM and 37.5 µM | [22] 82.8 µM and 77.8 µM | [23] > 100 µM | [24] 44.1 µM and 36.4 µM | [25] 38.8 µM and 53.3 µM | [26] > 100 µM | [27] 31.8 µM and 23.4 µM | [28] 47.3 µM and 48.3 µM | [29] 45.7 µM and 43.8 µM | [30] 39.3 µM and 21.8 µM | [31] 32.9 µM and 34.4 µM | [32] 25.9 µM and 26.4 µM | [33] 19.1 µM and 33.6 µM | [34] 31.4 µM | [35] 46.9 µM and 71.4 µM | [36] 88.9 µM and 87.9 µM | [37] 61.4 µM and 60.3 µM | [38] 22.3 µM and 40.7 µM | [39] 34.8 µM | [40] 42.8 µM and 24 µM | [41] 34.6 µM and 34.5 µM | [42] > 100 µM | [43] 31.8 µM and 21 µM | [57] 14.3 µM and 14 µM | [44] > 100 µM and 93.5 µM | [45] 14.8 µM and 26.7 µM | [47] 32.9 µM and 54.5 µM | [48] > 100 µM | [58] 30.8 µM and 40.9 µM | [49] 23.1 µM and 22 µM
73.1 µM and 62.5 µM: [12]
